US20170114128A1, “USE OF TGF-BETA ANTAGONISTS OF TREAT TYPE-2 DIABETES” (ALBERT EINSTEIN COLLEGE OF MEDICINE, INC., priority 2014, published 2017)

System: normal C57BL/6 mice
Test: Intra-third ventricle injection of TGF-β1, GTT, ITT, food intake and body weight
Type: in vivo
Protocol: Brain TGF-β excess impairs glucose tolerance: To study the metabolic effects of brain TGF-β excess, a pharmacological approach was first used by which TGF-β was delivered into the hypothalamic third ventricle of normal C57BL/6 mice via pre-implanted cannula. To optimize the dosage, different doses of TGF-β1 (0, 0.5, 1.0, and 4.0 ng) were injected, and TGF-β1 concentrations measured in the CSF at various time points post-injection. […] Based on this condition, overnight-fasted mice were given intra-third ventricle injections of TGF-β1 in these doses, one injection at night after food was removed, and the second injection in the following morning at 4 hours prior to glucose tolerance test (GTT). […] In sum, a pharmacological induction of brain TGF-β excess can acutely cause pre-diabetic changes including glucose intolerance and insulin resistance.
Animals. Tgfb1^lox/lox mice, Tgfbr2^lox/lox mice, Tgfb1^+/− mice, GFAP-Cre mice, and T1r4^−/− mice on C57BL/6 were obtained from Jackson (32,56-59) and continued to be maintained on C57BL/6. CMV-lox-stop-lox-Tgfb1 mice(30) obtained from Jackson were backcrossed into C57BL/6. POMC-Cre mice maintained on C57BL/6 were used in our previous research (20,60). All mice were housed in standard, pathogen-free animal facility with 12 h/12 h light and darkness cycles, and adult male mice were used in experiments of this work. Mice were maintained on normal chow since weaning, and for some experiments involving HFD feeding, a HFD (45% kcal fat, Research Diets, Inc.) was used when mice were two to three months old. Food intake and body weight of mice were measured using a laboratory scale. GTT was performed in mice through intraperitoneal (i.p.) injection of glucose at 2 g/kg body weight. ITT was performed in mice through i.p. injection of human recombinant insulin (Nova Nordisk) at the dose of 0.7 U/kg body weight. Blood glucose levels during GTT and ITT were measured with LifeScan® blood glucose monitoring system. All procedures were approved by the Institutional Animal Care and Use Committee of Albert Einstein College of Medicine.
Brain injection. […]

## TGF-β1: transforming growth factor-β1 (Sigma), cytokine dissolved in artificial cerebrospinal fluid for third-ventricle injection
4 ng
  glucose intolerance effect, comparison of doses: slightly strongest
4 ng, third ventricle
  sensitivity of insulin in lowing blood glucose (ITT): significantly dampened
Each dose (0.5, 1.0, 4.0 ng), two intra-third ventricle injections, overnight-fasted
  glucose tolerance in GTT: led to glucose intolerance
